Activity calls are given as the source filed them. No rule for the calls is given here.
System: GENE-TOX genotoxicity assays, various organisms and cells
Experiment: GENE-TOX mutagenicity studies
Settings: for call: Assay Type: In vivo carcinogenicity studies
[1] = Species/Cell Type: Human, Assay Type: Sister-chromatid exchange (SCE) in vitro, Assay Code: SC1T, Evaluation Type: Evaluation B (Post-1980)
[2] = Species/Cell Type: Nonhuman, Assay Type: Sister-chromatid exchange (SCE) in vitro, Assay Code: SC2+, Evaluation Type: Evaluation B (Post-1980)
[3] = Species/Cell Type: Neurospora crassa, Assay Type: Reverse gene mutation, Assay Code: NER+, Evaluation Type: Evaluation A (Pre-1980)
[4] = Species/Cell Type: Fischer rat embryo (RLV/1706) cells, Assay Type: Cell transformation, viral enhanced, Assay Code: CTR+, Evaluation Type: Evaluation A (Pre-1980)
[5] = Species/Cell Type: Escherichia coli WP2 UVRA, Assay Type: Tryptophan reverse gene mutation, Assay Code: WPU+D, Dose Response: With dose response, Evaluation Type: Evaluation A (Pre-1980)
[6] = Species/Cell Type: Nonhuman, Assay Code: CCG+L, Evaluation Type: Evaluation A (Pre-1980)
[7] = Species/Cell Type: Drosophila melanogaster, Assay Type: Sex-linked recessive lethal gene mutation, Assay Code: SRLT, Evaluation Type: Evaluation A (Pre-1980)
[8] = Species/Cell Type: Bacillus subtilis (H17 vs M45), Assay Type: Rec-assay, spot test, DNA effects (bacterial DNA repair), Assay Code: REWT, Evaluation Type: Evaluation A (Pre-1980)
[9] = Species/Cell Type: Bacillus subtilis (H17 vs M45), Assay Type: Rec-assay, spot test, DNA effects (bacterial DNA repair), Assay Code: REW+, Evaluation Type: Evaluation A (Pre-1980)
[10] = Species/Cell Type: Salmonella typhimurium (one or more of the five standard strains: TA98, TA100, TA1535, TA1537, and TA1538), Assay Type: Histidine reverse gene mutation, Ames assay, Assay Code: SAL+, Evaluation Type: Evaluation A (Pre-1980)
[11] = Species/Cell Type: Salmonella typhimurium (one or more of the five standard strains: TA98, TA100, TA1535, TA1537, and TA1538), Assay Type: Histidine reverse gene mutation, Ames assay, Assay Code: SALT, Evaluation Type: Evaluation A (Pre-1980)
[12] = Species/Cell Type: Nonhuman, Assay Type: Sister-chromatid exchange (SCE) in vitro, Assay Code: SC2+D, Dose Response: With dose response, Evaluation Type: Evaluation B (Post-1980)

In the case of `CC[C@]1(O)CC2CN(CCc3c([nH]c4ccccc34)[C@@](C(=O)OC)(c3cc4c(cc3OC)N(C=O)[C@H]3[C@@](O)(C(=O)OC)[C@H](OC(C)=O)[C@]5(CC)C=CCN6CC[C@]43[C@@H]65)C2)C1` (some centres undefined), the mutagenic call (Species/Cell Type: Human lymphocytes, Assay Type: Sister-chromatid exchange (SCE) in vitro, Assay Code: SCL+, Evaluation Type: Evaluation A (Pre-1980)) is reported as “active; positive”, the mutagenic call (Species/Cell Type: Human lymphocytes, Assay Type: Sister-chromatid exchange (SCE) in vitro, Assay Code: SCL+, Evaluation Type: Evaluation B (Post-1980)) is reported as “active; positive” and the mutagenic call (Species/Cell Type: Human lymphocytes, Assay Type: Sister-chromatid exchange (SCE) in vitro, Assay Code: SCLT, Evaluation Type: Evaluation B (Post-1980)) is reported as “no conclusion”. The mutagenic call (Species/Cell Type: Human, Assay Type: Sister-chromatid exchange (SCE) in vitro, Assay Code: SC1+, Evaluation Type: Evaluation B (Post-1980)) was “active; positive”, the mutagenic call [1] was “no conclusion” and the mutagenic call (Species/Cell Type: Mammalian polychromatic erythrocytes, Assay Type: Micronucleus test, chromosome aberrations, Assay Code: MNT+, Evaluation Type: Evaluation A (Pre-1980)) was “active; positive”. The mutagenic call (Species/Cell Type: Mouse (C3H/10T1/2) cells, Assay Type: Cell transformation, Assay Code: CTH-, Evaluation Type: Evaluation A (Pre-1980)) was “inactive; negative”, the mutagenic call [2] was “active; positive” and the mutagenic call (Species/Cell Type: Nonhuman, Assay Type: Sister-chromatid exchange (SCE) in vivo, Assay Code: SC3T, Evaluation Type: Evaluation B (Post-1980)) was “no conclusion”.

With `COc1ccc(C[C@H](N)C(=O)N[C@H]2[C@@H](O)[C@H](n3cnc4c(N(C)C)ncnc43)O[C@@H]2CO)cc1` the mutagenic call (Species/Cell Type: Escherichia coli polA (W3110 vs P3478), Assay Type: Rec-assay, DNA effects (bacterial DNA repair), Assay Code: RE2+, Evaluation Type: Evaluation A (Pre-1980)) was “active; positive”, the mutagenic call (Species/Cell Type: Escherichia coli polA (W3119 vs P3478), Assay Type: Rec-assay, DNA effects (bacterial DNA repair), Assay Code: RE1-, Evaluation Type: Evaluation A (Pre-1980)) was “inactive; negative” and the mutagenic call (Species/Cell Type: Glycine max (soybean), Assay Type: Gene mutation, Assay Code: GLMT, Evaluation Type: Evaluation A (Pre-1980)) was “no conclusion”. The mutagenic call (Species/Cell Type: Rodents, Sex: Male, Assay Type: Dominant lethal test, Assay Code: DLT-, Evaluation Type: Evaluation A (Pre-1980)) was “inactive; negative”.

For `COc1ccc(Cn2ccnc2/C=C/c2ccc([N+](=O)[O-])o2)cc1`, the mutagenic call [3] was “active; positive”.

With `CN(C)c1ccc(N=Nc2ccc3ncccc3c2)cc1` the mutagenic call [4] was “active; positive” and the mutagenic call (Species/Cell Type: Mouse embryo (AKR/ME) cells, Assay Type: Cell transformation, Assay Code: CTK+, Evaluation Type: Evaluation A (Pre-1980)) was “active; positive”.

With `Nc1ccc(Cl)cc1N` the call (Species/Cell Type: Nonhuman, Assay Code: CCG+, Evaluation Type: Evaluation A (Pre-1980)) was “active; positive”.

For `Oc1ccc(Cl)cc1Cc1cc(Cl)ccc1O`, the mutagenic call (Species/Cell Type: Mammalian polychromatic erythrocytes, Assay Type: Micronucleus test, chromosome aberrations, Assay Code: MNTT, Evaluation Type: Evaluation B (Post-1980)) was “no conclusion”.

For `Brc1ccc(C2CO2)cc1` (centres undefined), the mutagenic call [5] was “active; positive”.

For `CCCCNCCCCO`, the mutagenic call (Species/Cell Type: Nonhuman, Assay Type: Chromosome aberrations in vitro, Assay Code: CY&-, Evaluation Type: Evaluation A (Pre-1980)) was “inactive; negative” and the mutagenic call (Species/Cell Type: Nonhuman, Assay Type: Sister-chromatid exchange (SCE) in vitro, Assay Code: SC2T, Evaluation Type: Evaluation A (Pre-1980)) was “no conclusion”.

For `ClCc1cccnc1`, the mutagenic call [4] was “active; positive”, the mutagenic call (Species/Cell Type: Mouse (BALB/c-3T3) cells, Assay Type: Cell transformation, Assay Code: CTB-, Evaluation Type: Evaluation A (Pre-1980)) was “inactive; negative” and the call [6] was “active; positive”.

With `CC(=O)N(OS(=O)(=O)O)c1ccc2c(c1)Cc1ccccc1-2` the mutagenic call [7] was “no conclusion”.

In the case of `O=C(Cl)c1ccccc1`, the mutagenic call [8] is reported as “no conclusion”.

With `NC(=O)N/N=C/c1ccc([N+](=O)[O-])o1` the mutagenic call [9] was “active; positive”, the mutagenic call (Species/Cell Type: Chinese hamster ovary (CHO) cells, Assay Type: Forward gene mutation at the HPRT locus, Assay Code: CHO-, Evaluation Type: Evaluation B (Post-1980)) was “inactive; negative” and the mutagenic call (Species/Cell Type: Escherichia coli WP2, Assay Type: Tryptophan reverse gene mutation, Assay Code: WP2T, Evaluation Type: Evaluation A (Pre-1980)) was “no conclusion”. For the same compound, the mutagenic call [5] was “active; positive”, the mutagenic call [4] was “active; positive” and the mutagenic call (Species/Cell Type: Human diploid fibroblasts, Assay Type: Unscheduled DNA synthesis (UDS) in vitro, DNA effects, Assay Code: UDH-, Evaluation Type: Evaluation A (Pre-1980)) was “inactive; negative”. The mutagenic call (Species/Cell Type: Mammalian polychromatic erythrocytes, Assay Type: Micronucleus test, chromosome aberrations, Assay Code: MNTT, Evaluation Type: Evaluation A (Pre-1980)) was “no conclusion”, the mutagenic call (Species/Cell Type: Mouse, Sex: Male, Assay Type: Sperm morphology, Assay Code: SPI-, Evaluation Type: Evaluation A (Pre-1980)) was “inactive; negative” and the mutagenic call (Species/Cell Type: Neurospora crassa, Assay Type: Forward gene mutation, Assay Code: NEF+, Evaluation Type: Evaluation A (Pre-1980)) was “active; positive”. For the same compound, the mutagenic call [3] was “active; positive”, the mutagenic call (Species/Cell Type: Nonhuman bone marrow, Assay Type: Chromosome aberrations, in vivo, Assay Code: CY#-, Evaluation Type: Evaluation A (Pre-1980)) was “inactive; negative” and the call [6] was “active; positive”. For the same compound, the mutagenic call [10] was “active; positive”.

With `Cc1n(C)c([N+](=O)[O-])c[n+]1C` the mutagenic call [11] was “no conclusion”.

In the case of `BrC(Br)Br`, the mutagenic call (Species/Cell Type: Human lymphocytes, Assay Type: Sister-chromatid exchange (SCE) in vitro, Assay Code: SCL+D, Dose Response: With dose response, Evaluation Type: Evaluation B (Post-1980)) is reported as “active; positive”, the mutagenic call (Species/Cell Type: Human, Assay Type: Sister-chromatid exchange (SCE) in vitro, Assay Code: SC1+D, Dose Response: With dose response, Evaluation Type: Evaluation B (Post-1980)) is reported as “active; positive” and the mutagenic call [12] is reported as “active; positive”. For the same compound, the mutagenic call (Species/Cell Type: Nonhuman, Assay Type: Sister-chromatid exchange (SCE) in vivo, Assay Code: SC3+D, Dose Response: With dose response, Evaluation Type: Evaluation B (Post-1980)) was “active; positive”.

For `NS(=O)(=O)c1cc(C(=O)O)c(NCc2ccco2)cc1Cl`, the mutagenic call [1] was “no conclusion”, the mutagenic call (Species/Cell Type: Saccharomyces cerevisiae, Assay Type: Mitotic recombination or gene conversion, Assay Code: YEC-*, Activation: With metabolic activation, Evaluation Type: Evaluation A (Pre-1980)) was “inactive; negative” and the mutagenic call [11] was “no conclusion”.

With `CS(=O)(=O)OCC#CCOS(C)(=O)=O` the mutagenic call (Species/Cell Type: Drosophila melanogaster, Assay Type: Sex-linked recessive lethal gene mutation, Assay Code: SRL+, Evaluation Type: Evaluation A (Pre-1980)) was “active; positive”.

For `CN(OC(=O)c1ccccc1)c1ccc(N=Nc2ccccc2)cc1`, the mutagenic call [7] was “no conclusion”.

In the case of `FC(F)(Cl)Cl`, the mutagenic call (Species/Cell Type: Tradescantia species, Assay Type: Gene mutation, Assay Code: TRM-, Evaluation Type: Evaluation A (Pre-1980)) is reported as “inactive; negative”.

With `CCN(Cc1cccc(S(=O)(=O)O)c1)c1ccc(C(=C2C=CC(=[N+](CC)Cc3cccc(S(=O)(=O)[O-])c3)C=C2)c2ccc(S(=O)(=O)O)cc2)cc1` the mutagenic call [8] was “no conclusion”, the mutagenic call (Species/Cell Type: Bacillus subtilis (H17 vs M45T), Assay Type: Rec-assay, spot test, DNA effects (bacterial DNA repair), Assay Code: REXT, Evaluation Type: Evaluation A (Pre-1980)) was “no conclusion” and the mutagenic call (Species/Cell Type: Salmonella typhimurium (one or more of the five standard strains: TA98, TA100, TA1535, TA1537, and TA1538), Assay Type: Histidine reverse gene mutation, Ames assay, Assay Code: SAL-, Evaluation Type: Evaluation A (Pre-1980)) was “inactive; negative”.

In the case of `O=S(=O)(O)c1ccc(N=Nc2ccc(N=Nc3c(O)c(S(=O)(=O)O)cc4cc(S(=O)(=O)O)ccc34)c(S(=O)(=O)O)c2)cc1`, the mutagenic call [11] is reported as “no conclusion”.

With `NC(=S=O)c1ccccc1` the mutagenic call (Species/Cell Type: Mammalian polychromatic erythrocytes, Assay Type: Micronucleus test, chromosome aberrations, Assay Code: MNT+U, Dose Response: Unconfirmed positive response, Evaluation Type: Evaluation B (Post-1980)) was “active; positive”.

For `CCCCOCC1CO1` (centres undefined), the mutagenic call (Species/Cell Type: Mammalian polychromatic erythrocytes, Assay Type: Micronucleus test, chromosome aberrations, Assay Code: MNT+, Evaluation Type: Evaluation B (Post-1980)) was “active; positive”.

With `O[C@@H]1[C@@H](O)[C@@H](O)c2c(cc3ccc4cccc5ccc2c3c45)[C@H]1O` the mutagenic call (Species/Cell Type: Chinese hamster lung (V79) cells, Assay Type: Forward gene mutation at the HPRT or ouabain locus, Assay Code: V79-*, Activation: With metabolic activation, Evaluation Type: Evaluation A (Pre-1980)) was “inactive; negative”.

`NNCCO` was tested, and the mutagenic call [9] was “active; positive”, the mutagenic call (Species/Cell Type: Escherichia coli WP2, Assay Type: Tryptophan reverse gene mutation, Assay Code: WP2+, Evaluation Type: Evaluation A (Pre-1980)) was “active; positive” and the mutagenic call (Species/Cell Type: Escherichia coli WP2 UVRA, Assay Type: Tryptophan reverse gene mutation, Assay Code: WPU+, Evaluation Type: Evaluation A (Pre-1980)) was “active; positive”. The mutagenic call [12] was “active; positive” and the mutagenic call [10] was “active; positive”.

For `Nc1ncnc2c1ncn2[C@@H]1O[C@H](COP(=O)(O)OP(=O)(O)OP(=O)(O)O)[C@@H](O)[C@H]1O`, the mutagenic call (Species/Cell Type: Drosophila melanogaster, Assay Type: Aneuploidy, whole sex chromosome loss, chromosome aberrations, Assay Code: DAC-M, Evaluation Type: Evaluation A (Pre-1980)) was “inactive; negative”.

With `CCCCOc1ccc(CC(=O)NOC(=O)CC)cc1` the mutagenic call [2] was “active; positive”.

Source: PubChem BioAssay AID1259408 (Genetic Toxicology Data Bank (GENE-TOX), 2018)
